Laboratory results from patent US20230301972A1, “ANTI-FIBROTIC COMPOSITION AND RELATED METHODS” (Fred Hutchinson Cancer Center, priority 2020, published 2023).

Key:
Type in all cases: cell-based, human
LX2 cells [1] = experiment: qPCR of TGF-β-induced gene expression in LX2 cells; details: galunisertib
Protocol: (§1) LX2 cells were obtained from Sigma Aldrich (Cat #SCC064). LX2 cells were grown at 37° C. under 5% CO2, 95% ambient atmosphere and maintained in Dulbecco's […] (DMEM) supplemented with 10% FBS (Sigma) and 1% Penn Strep.
(§2) FIGS. 10B and 10C: LX2 cells were incubated with TGF-β alone at 6.5 ng/ml or TGF-β with indicated drugs for 48 hours. Total cellular RNA was isolated using a RNeasy Mini Kit (QIAGEN). 1 μg of total RNA was reverse transcribed into first-strand cDNA using an RT2 First Strand Kit (QIAGEN). The resultant cDNA was subjected to qPCR using indicated human primers to measure the changes in mRNA expression of indicated human genes.

LX2 cells [2] = experiment: Live cell wound healing assay in LX2 cells; details: 1 μM; TGFb 6.5 ng/ml; wound closure density at 50 hour
Protocol: as §1
FIG. 10A: LX2 cells were plated on 96-well plates (Essen Image Lock, Essen Instruments). […] Wound closure was monitored with Incucyte Live-Cell Imaging System and software (Essen Instruments) every 2-4 hours for 72 hours. The mean relative wound density of at least three biological replicates was calculated. The wound density correlates with the cell motility. Plotted is the wound closure density at 50 hour.

[3] = test system: IPF-LL29 and IPF-LL97A cells; experiment: qPCR of TGF-β-induced gene expression in IPF-LL29 and IPF-LL97A cells; details: nintedanib at a same equivalent dose, pirfenidone at a much higher dose; FIGS. 2A, 2B, 3A, 3B
Protocol: IPF-LL29, IPF-LL97A, and human lung fibroblast LL47 cell lines were purchased from ATCC. Mouse lung fibroblasts were isolated from the lungs of male C57BL/6J mice. Cells were grown at 37° C. under 5% CO2, 95% ambient atmosphere and maintained in Dulbecco's […] (DMEM) supplemented with 10% FBS (Sigma) and 1% Penn Strep.
as §2, with “2A” for “10B”, “2B. IPF-29 (FIG. 2A) or IPF-97A (FIG. 2B)” for “10C: LX2”, “5” for “6.5”, “hours and 5 days.” for “hours.”

SMILES | effect on TGF-β-induced expression of COL1A1 and αSMA (LX2 cells [1]) | TGF-β-induced motility of LX2 cells (LX2 cells [2]) | TGF-β induced expression of myofibroblast activation marker genes or proliferation stimuli [3]
Cc1cccc(-c2nn3c(c2-c2ccnc4ccc(C(N)=O)cc24)CCC3)n1 [galunisertib, reference compound] | modest effect | did not affect LX2 cell motility | –
COC(=O)c1ccc2c(c1)NC(=O)/C2=C(\Nc1ccc(N(C)C(=O)CN2CCN(C)CC2)cc1)c1ccccc1 [nintedanib, reference compound] | – | – | did not effectively block
Cc1ccc(=O)n(-c2ccccc2)c1 [pirfenidone, reference compound] | – | – | did not effectively block
